Data: US10172832B2, “Amide derivatives of N-urea substituted amino acids as formyl peptide receptor like-1 (FPRL-1) receptor modulators” (Allergan, Inc., priority 2011, dated 2019)

Molecular target: T1, FPRL-1 (Homo sapiens, UniProt P25090)
T1 construct: expressed in transfected cells
T1 sequence (P25090 1-351): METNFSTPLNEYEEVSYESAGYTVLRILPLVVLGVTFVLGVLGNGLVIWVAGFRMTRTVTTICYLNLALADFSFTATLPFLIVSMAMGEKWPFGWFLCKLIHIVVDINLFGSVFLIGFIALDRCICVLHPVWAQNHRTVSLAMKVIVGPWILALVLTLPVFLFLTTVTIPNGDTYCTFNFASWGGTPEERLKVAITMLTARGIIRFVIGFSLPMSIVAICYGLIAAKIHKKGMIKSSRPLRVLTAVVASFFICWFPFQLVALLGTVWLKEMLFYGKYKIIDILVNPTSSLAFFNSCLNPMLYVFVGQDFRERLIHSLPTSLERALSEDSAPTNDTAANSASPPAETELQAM
Assay: compound-induced calcium activity on FLIPR Tetra in CHO-Gα16 cells stably expressing FPRL1
Type: cell-based
Settings: for FPRL-1 Ga16-CHO (Rel. eff.): relative efficacy; for EC50: tested 0.61 to 10,000 nM, read-out: FPRL-1 Ga16-CHO EC50
Protocol: CHO-Gα16 cells stably expressing FPRL1 were cultured in (F12, 10% FBS, 1% PSA, 400 μg/ml geneticin and 50 μg/ml hygromycin) and HEK-Gqi5 cells stable expressing FPR1 were cultured in (DMEM high glucose, 10% FBS, 1% PSA, 400 μg/ml geneticin and 50 μg/ml hygromycin). In general, the day before the experiment, 18,000 cells/well were plated in a 384-well clear bottom poly-d-lysine coated plate. The following day the screening compound-induced calcium activity was assayed on the FLIPR^Tetra. The drug plates were prepared in 384-well microplates using the EP3 and the MultiPROBE robotic liquid handling systems. Compounds were tested at concentrations ranging from 0.61 to 10,000 nM. Results are expressed as EC50 (nM) and efficacy values.

`CC(C)(C)OC(=O)CNC(=O)[C@H](Cc1c[nH]c2ccccc12)NC(=O)Nc1ccc(Br)cc1` (stereo in doubt) [Compound 90, tert-butyl {[2-{[(4-bromophenyl)carbamoyl]amino}-3-(1H-indol-3-yl)propanoyl]amino}acetate] was tested. Which “FPRL-1 Ga16-CHO (Rel. eff.)” value did it give?
The value was “(1.03)”.

And the EC50?
The EC50 was 305 nM.

Which “FPRL-1 Ga16-CHO (Rel. eff.)” value does the source give for `CCC[C@H](NC(=O)Nc1ccc(Br)cc1F)C(=O)NCC(C)=O` [(2S)-2-{[(4-bromo-2-fluorophenyl)carbamoyl]amino}-N-(2-oxopropyl)pentanamide] here?
Its value is “(0.92)”.

And the EC50?
Its EC50 is 92 nM.

How did the “FPRL-1 Ga16-CHO (Rel. eff.)” value turn out when `CCC[C@H](NC(=O)Nc1ccc(Br)cc1)C(=O)NCC(C)=O` [(2S)-2-{[(4-bromophenyl)carbamoyl]amino}-N-(2-oxopropyl)pentanamide] was run?
The value was “(1.05)”.

What about the EC50 of the same compound?
Its EC50 is 35 nM.

Which “FPRL-1 Ga16-CHO (Rel. eff.)” value does the source give for `O=C(O)CNC(=O)[C@H](Cc1ccccc1)NC(=O)Nc1ccc(Br)cc1` [Compound 1, {[(2S)-2-{[(4-bromophenyl)carbamoyl]amino}-3-phenylpropanoyl]amino}acetic acid] here?
Its value is “(0.99)”.

What about the EC50 of the same compound?
Its EC50 is 7.7 nM.

How did the “FPRL-1 Ga16-CHO (Rel. eff.)” value turn out when `O=C(O)CCNC(=O)[C@H](Cc1ccccc1)NC(=O)Nc1ccc(Br)cc1` [Compound 2, 3-{[(2S)-2-{[(4-bromophenyl)carbamoyl]amino}-3-phenylpropanoyl]amino}propanoic acid] was run?
The value was “(0.98)”.

And the EC50?
The EC50 was 18 nM.

What does the source list for `CC[C@H](C)[C@H](NC(=O)Nc1ccc(Br)cc1F)C(=O)NCC(=O)O` [Compound 3, {[(2S,3S)-2-{[(4-bromo-2-fluorophenyl)carbamoyl]amino}-3-methylpentanoyl]amino}acetic acid]?
FPRL-1 Ga16-CHO (Rel. eff.): (0.95); EC50: 5.5 nM

How did the “FPRL-1 Ga16-CHO (Rel. eff.)” value turn out when `CC[C@H](C)[C@H](NC(=O)Nc1ccc(Br)cc1)C(=O)NCC(=O)O` [Compound 4, {[(2S,3S)-2-{[(4-bromophenyl)carbamoyl]amino}-3-methylpentanoyl]amino}acetic acid] was run?
The value was “(1.00)”.

What about the EC50 of the same compound?
The EC50 was 2.7 nM.

Which results are given for `CCC[C@H](NC(=O)Nc1ccc(Br)cc1)C(=O)NCC(=O)O` [Compound 5, {[(2S)-2-{[(4-bromophenyl)carbamoyl]amino}pentanoyl]amino}acetic acid]?
FPRL-1 Ga16-CHO (Rel. eff.): (0.91); EC50: 3.2 nM

Which “FPRL-1 Ga16-CHO (Rel. eff.)” value does the source give for `CC(C)(C)OC(=O)CNC(=O)[C@H](Cc1ccccc1)NC(=O)Nc1ccc(Br)cc1` [Compound 7, tert-Butyl {[(2S)-2-{[(4-bromophenyl)carbamoyl]amino}-3-phenylpropanoyl]amino}acetate] here?
Its value is “(0.91)”.

What about the EC50 of the same compound?
Its EC50 is 118 nM.

What does the source list for `CC(C)(C)OC(=O)CCNC(=O)[C@H](Cc1ccccc1)NC(=O)Nc1ccc(Br)cc1` [Compound 8, tert-butyl 3-{[(2S)-2-{[(4-bromophenyl)carbamoyl]amino}-3-phenylpropanoyl]amino}propanoate]?
FPRL-1 Ga16-CHO (Rel. eff.): (1.00); EC50: 255 nM

For `O=C(Nc1ccc(Br)cc1)N[C@@H](Cc1ccccc1)C(=O)NCCO` [Compound 9, (2S)-2-{[(4-bromophenyl)carbamoyl]amino}-N-(2-hydroxyethyl)-3-phenylpropanamide], which “FPRL-1 Ga16-CHO (Rel. eff.)” value is on record?
Its value is “(0.92)”.

And the EC50?
Its EC50 is 6 nM.

With `CC[C@H](C)[C@H](NC(=O)Nc1ccc(Br)cc1F)C(=O)NCC(=O)OC(C)(C)C` [Compound 10, tert-butyl{[(2S,3S)-2-{[(4-bromo-2-fluorophenyl)carbamoyl]amino}-3-methylpentanoyl]amino}acetate] as the compound, how does the “FPRL-1 Ga16-CHO (Rel. eff.)” value read?
Its value is “(0.86)”.

What about the EC50 of the same compound?
The EC50 was 757 nM.

Which “FPRL-1 Ga16-CHO (Rel. eff.)” value does the source give for `CC[C@H](C)[C@H](NC(=O)Nc1ccc(Br)cc1)C(=O)NCC(=O)OC(C)(C)C` [Compound 11, tert-butyl{[(2S,3S)-2-{[(4-bromophenyl)carbamoyl]amino}-3-methylpentanoyl]amino}acetate] here?
The value was “(0.85)”.

And the EC50?
Its EC50 is 280 nM.

`CC[C@H](C)[C@H](NC(=O)Nc1ccc(Br)cc1)C(=O)NCC(C)=O` [Compound 12, (2S,3S)-2-{[(4-bromophenyl)carbamoyl]amino}-3-methyl-N-(2-oxopropyl)pentanamide] was tested. Which “FPRL-1 Ga16-CHO (Rel. eff.)” value did it give?
Its value is “(0.97)”.

And the EC50?
The EC50 was 10 nM.

How did the “FPRL-1 Ga16-CHO (Rel. eff.)” value turn out when `CC[C@H](C)[C@H](NC(=O)Nc1ccc(Br)cc1F)C(=O)NCC(C)=O` [Compound 13, (2S,3S)-2-{[(4-bromo-2-fluorophenyl)carbamoyl]amino}-3-methyl-N-(2-oxopropyl)pentanamide] was run?
Its value is “(1.01)”.

And the EC50?
Its EC50 is 36 nM.

Which results are given for `CC[C@H](C)[C@H](NC(=O)Nc1ccc(Br)cc1)C(=O)NCCO` [Compound 14, (2S,3S)-2-{[(4-bromophenyl)carbamoyl]amino}-N-(2-hydroxyethyl)-3-methylpentanamide]?
FPRL-1 Ga16-CHO (Rel. eff.): (1.00); EC50: 24 nM

`CC[C@H](C)[C@H](NC(=O)Nc1ccc(Br)cc1F)C(=O)NCCO` [Compound 15, (2S,3S)-2-{[(4-bromo-2-fluorophenyl)carbamoyl]amino}-N-(2-hydroxyethyl)-3-methylpentanamide] was tested. Which “FPRL-1 Ga16-CHO (Rel. eff.)” value did it give?
Its value is “(1.00)”.

And the EC50?
The EC50 was 62 nM.

Which results are given for `CC(=O)CNC(=O)[C@H](Cc1ccccc1)NC(=O)Nc1ccc(Br)cc1` [Compound 16, (2S)-2-{[(4-bromophenyl)carbamoyl]aminio}-N-(2-oxopropyl)-3-phenylpropanamide]?
FPRL-1 Ga16-CHO (Rel. eff.): (0.96); EC50: 29 nM

For `CC(=O)CNC(=O)[C@H](Cc1ccccc1)NC(=O)Nc1ccc(Br)cc1F` [Compound 17, (2S)-2-{[(4-bromo-2-fluorophenyl)carbamoyl]amino}-N-(2-oxopropyl)-3-phenylpropanamide], which “FPRL-1 Ga16-CHO (Rel. eff.)” value is on record?
Its value is “(0.94)”.

And the EC50?
Its EC50 is 12 nM.

How did the “FPRL-1 Ga16-CHO (Rel. eff.)” value turn out when `CCC[C@H](NC(=O)Nc1ccc(Br)cc1)C(=O)NCC(=O)OC(C)(C)C` [Compound 18, tert-butyl {[(2S)-2-{[(4-bromophenyl)carbamoyl]amino}-pentanoyl]amino}acetate] was run?
The value was “(0.95)”.

What about the EC50 of the same compound?
The EC50 was 31 nM.

What does the source list for `O=C(Nc1ccc(Br)cc1F)N[C@@H](Cc1ccccc1)C(=O)NCCO` [Compound 19, (2S)-2-{[(4-bromo-2-fluorophenyl)carbamoyl]amino}-N-(2-hydroxyethyl)-3-phenylpropanamide]?
FPRL-1 Ga16-CHO (Rel. eff.): (0.98); EC50: 16 nM

Which results are given for `CCC[C@H](NC(=O)Nc1ccc(Br)cc1)C(=O)NCCO` [Compound 20, (2S)-2-{[(4-bromophenyl)carbamoyl]amino}-N-(2-hydroxyethyl)pentanamid]?
FPRL-1 Ga16-CHO (Rel. eff.): (0.92); EC50: 38 nM

Which results are given for `CCC[C@H](NC(=O)Nc1ccc(Br)cc1F)C(=O)NCCO` [Compound 21, (2S)-2-{[(4-bromo-2-fluorophenyl)carbamoyl]amino}-N-(2-hydroxyethyl) pentanamide]?
FPRL-1 Ga16-CHO (Rel. eff.): (0.87); EC50: 105 nM

With `CCC[C@H](NC(=O)Nc1ccc(Br)cc1)C(=O)NCC(=O)OC` [Compound 22, methyl {[(2S)-2-{[(4-bromophenyl)carbamoyl]amino}-pentanoyl]amino}acetate] as the compound, how does the “FPRL-1 Ga16-CHO (Rel. eff.)” value read?
The value was “(0.88)”.

What about the EC50 of the same compound?
Its EC50 is 17 nM.

`CCC[C@H](NC(=O)Nc1ccc(Br)cc1)C(=O)NCC(=O)OCC` [Compound 23, ethyl {[(2S)-2-{[(4-bromophenyl)carbamoyl]amino}-pentanoyl]amino}acetate] was tested. Which “FPRL-1 Ga16-CHO (Rel. eff.)” value did it give?
The value was “(1.18)”.

What about the EC50 of the same compound?
Its EC50 is 57 nM.

With `CCC[C@H](NC(=O)Nc1ccc(Br)cc1)C(=O)NCC(=O)OC(C)C` [Compound 24, isopropyl {[(2S)-2-{[(4-bromophenyl)carbamoyl]amino}-pentanoyl]amino}acetate] as the compound, how does the “FPRL-1 Ga16-CHO (Rel. eff.)” value read?
Its value is “(1.04)”.

What about the EC50 of the same compound?
Its EC50 is 14 nM.

With `CC(C)C[C@H](NC(=O)Nc1ccc(Br)cc1)C(=O)NCC(=O)OC(C)(C)C` [Compound 25, tert-butyl {[(2S)-2-{[(4-bromophenyl)carbamoyl]amino}-4-methylpentanoyl]amino}acetate] as the compound, how does the “FPRL-1 Ga16-CHO (Rel. eff.)” value read?
The value was “(0.85)”.

And the EC50?
The EC50 was 140 nM.

Which “FPRL-1 Ga16-CHO (Rel. eff.)” value does the source give for `CC(C)C[C@H](NC(=O)Nc1ccc(Br)cc1)C(=O)NCCO` [Compound 26, (2S)-2-{[(4-bromophenyl)carbamoyl]amino}-N-(2-hydroxyethyl)-4-methylpentanamide] here?
Its value is “(0.92)”.

And the EC50?
Its EC50 is 11 nM.

For `CC(=O)CNC(=O)[C@H](CC(C)C)NC(=O)Nc1ccc(Br)cc1` [Compound 27, (2S)-2-{[(4-bromophenyl)carbamoyl]amino}-4-methyl-N-(2-oxopropyl)pentanamide], which “FPRL-1 Ga16-CHO (Rel. eff.)” value is on record?
The value was “(0.82)”.

And the EC50?
The EC50 was 4.7 nM.

How did the “FPRL-1 Ga16-CHO (Rel. eff.)” value turn out when `CC[C@H](C)[C@H](NC(=O)Nc1ccc(Br)cc1)C(=O)NCC(N)=O` [Compound 28, (2S,3S)—N-(2-amino-2-oxoethyl)-2-{[(4-bromophenyl)carbamoyl]amino}-3-methylpentanamide] was run?
The value was “(0.81)”.

And the EC50?
The EC50 was 4.6 nM.

`CC[C@H](C)[C@H](NC(=O)Nc1ccc(Br)cc1F)C(=O)NCC(N)=O` [Compound 29, (2S,3S)-N-(2-amino-2-oxoethyl)-2-{[(4-bromo-2-fluorophenyl)carbamoyl]amino}-3-methylpentanamide] was tested. Which “FPRL-1 Ga16-CHO (Rel. eff.)” value did it give?
The value was “(1.00)”.

What about the EC50 of the same compound?
Its EC50 is 10 nM.

Which “FPRL-1 Ga16-CHO (Rel. eff.)” value does the source give for `CCC[C@H](NC(=O)Nc1ccc(Br)cc1)C(=O)NCC(N)=O` [Compound 30, (2S)-N-(2-amino-2-oxoethyl)-2-{[(4-bromophenyl)carbamoyl]amino}-pentanamide] here?
The value was “(0.97)”.

What about the EC50 of the same compound?
Its EC50 is 2.5 nM.
